Measurements published in ChEMBL document CHEMBL1138847, “Improved structure-activity relationship analysis of HIV-1 protease inhibitors using interaction kinetic data” (J Med Chem, 2004).

What was measured:
[1] = biological target: Human immunodeficiency virus type 1 protease (Human immunodeficiency virus 1) (UniProt Q72874)
Description: Dissociation rate constant for human immunodeficiency virus type 1 protease

[2] = biological target: T1, Human immunodeficiency virus type 1 protease (Human immunodeficiency virus 1, UniProt Q72874); assay: Binding affinity for human immunodeficiency virus type 1 protease
[3] = biological target: Human immunodeficiency virus type 1 protease (Human immunodeficiency virus 1) (UniProt Q72874); remark: listed apart in the source
Description: Association rate constant for human immunodeficiency virus type 1 protease

[4] = tested on: MT4; assay: Effective dose of compound required to inhibit replication of human immunodeficiency virus type 1 in MT-4 cells; format: functional; conditions: read-out: ED50 (the source's name)
[5] = biological target: T1, Human immunodeficiency virus type 1 protease; assay: Inhibition constant for human immunodeficiency virus type 1 protease

Row | SMILES | k off [1] [s⁻¹] | Kd [2] [nM] | k on [3] [M⁻¹ s⁻¹] | EC50 [4] [nM] | Ki [5] [nM]
1 | Cc1cc(NS(=O)(=O)c2ccc(N)cc2)no1 [SULFAMETHOXAZOLE] | 0.06 | 577 | 188000 | > 79000 | 10.1
2 | CC(C)CN(C[C@@H](O)[C@H](Cc1ccccc1)NC(=O)O[C@H]1CCOC1)S(=O)(=O)c1ccc(N)cc1 | 0.00488 | 1.1 | 4.43e+06 | 80 | 0.23
3 | CC(C)[C@H](C)C(=O)NC(=O)[C@H](O)[C@H](O)[C@@H](O)[C@@H](Oc1ccc(CCc2ccccc2)cc1)C(=O)NC(=O)[C@@H](C)C(C)C | 0.00163 | 34.2 | 81100 | 2050 | 0.8
4 | O=S1(=O)N(Cc2ccc(CO)cc2)[C@H](COc2ccccc2)[C@H](O)[C@@H](O)[C@@H](COc2ccccc2)N1Cc1ccc(CO)cc1 | 0.0273 | – | – | 1550 | –
5 | O=C(NC1c2ccccc2C[C@@H]1O)[C@H](O)[C@H](O)[C@@H](O)[C@@H](Oc1ccccc1)C(=O)NC1c2ccccc2C[C@@H]1O (stereo partly drawn) | 0.01 | 13.9 | 6.39e+06 | 100 | 0.6
6 | CC(C)[C@H](C)C(=O)NC(=O)[C@H](O)[C@H](O)[C@@H](O)[C@@H](Oc1ccccc1)C(=O)NC1c2ccccc2C[C@@H]1O (stereo partly drawn) | 0.02 | 4.42 | 5.97e+06 | 120 | 0.05
7 | CCO[C@@H](C(=O)NC(=O)[C@@H](C)C(C)C)[C@H](O)[C@@H](O)[C@@H](O)C(=O)NC(=O)[C@@H](C)C(C)C | 0.00485 | 38400 | 134 | > 192000 | –
8 | CC(C)[C@H](C)C(=O)NC(=O)[C@H](O)[C@H](O)[C@@H](O)[C@@H](Oc1ccccc1)C(=O)NC(=O)[C@@H](C)C(C)C | 0.00367 | 10.8 | 355000 | 1320 | 0.4
9 | CC(NO)c1cccc(CN2[C@H](COc3ccccc3)[C@H](O)[C@@H](O)[C@@H](COc3ccccc3)N(Cc3cccc(C(C)NO)c3)S2(=O)=O)c1 (stereo partly drawn) | 0.04 | 169 | 512000 | 2900 | 5.6
10 | CC(C)[C@H](C)C(=O)NC(=O)[C@H](O)[C@H](O)[C@@H](O)[C@@H](Oc1ccc(-c2cccc([N+](=O)[O-])c2)cc1)C(=O)NC(=O)[C@@H](C)C(C)C | 0.000817 | 18.2 | 181000 | 160 | 1.4
11 | CC(C)(C)NC(=O)c1ccccc1NC[C@H](O)[C@H](Cc1ccccc1)NC(=O)[C@H](CC(N)=O)NC(=O)c1ccc2ccccc2n1 | – | – | – | 10100 | –
12 | CC(C)[C@H](C)C(=O)NC(=O)[C@H](O)[C@@H](O)[C@H](O)[C@@H](Oc1ccccc1)C(=O)NC(=O)[C@@H](C)C(C)C | 0.02 | 2990 | 9200 | 22900 | 40
13 | CC(C)(C)NC(=O)[C@@H]1CN(Cc2cccnc2)CCN1C[C@@H](O)C[C@@H](Cc1ccccc1)C(=O)N[C@H]1c2ccccc2C[C@H]1O | – | – | – | 50 | –
14 | Cc1c(O)cccc1C(=O)N[C@@H](CSc1ccccc1)[C@H](O)CN1C[C@H]2CCCC[C@H]2C[C@H]1C(=O)NC(C)(C)C | – | – | – | 20 | –
15 | CC(C)[C@H](C)C(=O)NC(=O)[C@H](O)[C@H](O)[C@@H](O)[C@@H](Oc1ccc(-c2ccccn2)cc1)C(=O)NC(=O)[C@@H](C)C(C)C | 0.000373 | 1.18 | 323000 | 640 | 0.61
16 | Cc1cccc(C)c1OCC(=O)N[C@@H](Cc1ccccc1)[C@@H](O)C[C@H](Cc1ccccc1)NC(=O)[C@H](C(C)C)N1CCCNC1=O [LOPINAVIR] | 0.000654 | – | 6.63e+06 | 10 | –
17 | COC(=O)/C=C/c1ccc(O[C@@H](C(=O)NC(=O)[C@@H](C)C(C)C)[C@H](O)[C@@H](O)[C@@H](O)C(=O)NC(=O)[C@@H](C)C(C)C)cc1 | 0.000365 | 1.95 | 204000 | 2580 | 0.09
18 | CC(C)[C@H](C)C(=O)NC(=O)[C@H](O)[C@H](O)[C@@H](O)[C@@H](Oc1ccc(C2=C(O)C(=O)CCC2)cc1)C(=O)NC(=O)[C@@H](C)C(C)C | 0.000487 | 17.5 | 29300 | 5600 | 0.3
19 | COC(=O)N[C@H](C(=O)N[C@@H](Cc1ccccc1)[C@@H](O)CN(Cc1ccc(-c2ccccn2)cc1)NC(=O)[C@@H](NC(=O)OC)C(C)(C)C)C(C)(C)C [ATAZANAVIR] | 0.00069 | 0.4 | 1.67e+06 | 6 | 0.24
20 | O=C(NC1c2ccccc2C[C@H]1O)[C@H](O)C[C@@H](O)[C@@H](Oc1ccccc1)C(=O)NC1c2ccccc2C[C@@H]1O (stereo partly drawn) | 0.02 | 35.8 | 666000 | 1440 | –
21 | CC(C)[C@H](C)C(=O)NC(=O)[C@H](O)[C@H](O)[C@@H](O)[C@@H](Oc1ccc(-c2nccs2)cc1)C(=O)NC(=O)[C@@H](C)C(C)C | 0.000303 | 0.64 | 477000 | 240 | 0.55
22 | CC(C)(C)NC(=O)c1ccccc1NC[C@@H](O)[C@H](Cc1ccccc1)NC(=O)[C@H](CC(N)=O)NC(=O)OCc1ccccc1 | – | – | – | 3310 | –
23 | C[C@@H](Cc1ccc(O)cc1)C(=O)NC(=O)[C@H](O)[C@H](O)[C@@H](O)[C@@H](Oc1ccccc1)C(=O)NC(=O)[C@@H](C)Cc1ccc(O)cc1 | 0.06 | 309000 | 172 | > 67000 | 5000
24 | CC(C)[C@H](C)C(=O)NC(=O)[C@H](O)[C@H](O)[C@@H](O)[C@@H](Oc1ccc(Br)cc1)C(=O)NC(=O)[C@@H](C)C(C)C | 0.00169 | 21.1 | – | 650 | 0.3
25 | CC(C)c1nc(CN(C)C(=O)N[C@H](C(=O)N[C@@H](Cc2ccccc2)C[C@H](O)[C@H](Cc2ccccc2)NC(=O)OCc2cncs2)C(C)C)cs1 [RITONAVIR] | – | – | – | 50 | –
26 | CC(C)[C@H](C)C(=O)NC(=O)[C@H]([O-])[C@H](O)[C@@H](O)[C@@H](Oc1ccc(C2=CC=[S+]C2)cc1)C(=O)NC(=O)[C@@H](C)C(C)C | 0.000432 | 3.04 | 348000 | 40 | 1.2
27 | CC(C)(C)NC(=O)[C@@H]1C[C@@H]2CCCC[C@@H]2CN1C[C@@H](O)[C@H](Cc1ccccc1)NC(=O)[C@H](CC(N)=O)NC(=O)c1ccc2ccccc2n1 | – | – | – | 10 | –
